Experimental data: patent US20250163029A1, “PYRIDONE OR PYRIMIDONE DERIVATIVE AND APPLICATION THEREOF” (Medshine Discovery Inc., priority 2022, published 2025)
Counter-ions that a name gives are not always drawn.

Tests used:
[1] = system: novel coronavirus βCoV/KOR/KCDC03/2020 strain; assay: In vitro anti-novel coronavirus activity in Vero cells; assay type: cell-based, SARS-CoV-2; conditions: Severe acute respiratory syndrome coronavirus 2, Vero, 24 h
plasma protein [2] = assay: Plasma protein binding rate (PPB), cynomolgus monkeys; assay type: in vitro ADME; conditions: Cynomolgus monkey plasma, 2 μM, 4 hours dialysis
Experimental: (§1) 597 μL of blank plasma from CD-1 mice, SD rats, beagle dogs, cynomolgus monkeys and humans were weighed, and the working solution of the assay compound or the working solution of warfarin was added, so that the final concentration of the assay compound and warfarin in the plasma sample was 2 μM. The samples were mixed thoroughly. The final concentration of DMSO as an organic phase was 0.5%; 50 μL of the assay compound and warfarin plasma samples were pipetted into a sample receiving plate, and the corresponding volume of blank plasma or buffer was immediately added, so that the final volume of each sample well was 100 μL, and the volume ratio of plasma:dialysis buffer was 1:1, and then the stop solution was added to these samples. The samples were used as the To sample for recovery and stability determination. The assay compound and warfarin plasma samples were added to the dosing end of each dialysis well, and blank dialysis buffer was added to the receiving end corresponding to the dialysis well. Then the dialysis plate was sealed with a gas permeable membrane and placed in a humidified 5% CO2 incubator, and incubated with shaking at 37° C. and 100 rpm for 4 hours. […] After protein precipitation, all samples were analyzed by LC/MS/MS, and the free rate (% Unbound) of the compound was calculated by the following formula: […]

in vivo = assay: in vivo; parameters: species or system Sprague-Dawley strain rats; conditions: Sprague-Dawley, rat
Experimental: Objective of assay: The druggability of compounds was evaluated by measuring their pharmacokinetic properties in different animal species.
Assay Materials: C57BL6/J strain mice, Sprague-Dawley strain rats and beagle dogs.
The pharmacokinetic characteristics of the compound after intravenous and oral administration were assayed in animals using a standard protocol. In the assay, the candidate compound was prepared into a clear solution (intravenous injection) or a homogeneous suspension (oral administration) and administrated to the animal once. Whole blood samples were collected within 24 hours, and centrifuged at 3200 g for 10 minutes. The supernatant was separated to obtain a plasma sample. The blood concentration was quantitatively analyzed by LC-MS/MS analysis method, and pharmacokinetic parameters such as peak concentration, time to peak, clearance rate, half-life, and area under the drug-time curve were calculated.

plasma protein [3] = assay: Plasma protein binding rate (PPB), beagle dogs; assay type: in vitro ADME; conditions: 2 μM, 4 hours dialysis
Experimental: as §1

coronavirus OC43 = assay: Efficacy on suckling mice infected with coronavirus; assay type: in vivo, Suckling mice (C57BL6/J strain); conditions: intraperitoneal, once a day day 0 to day 6
Experimental: Objective of assay: The in vivo antiviral activity of the compound against coronavirus was evaluated by observing the percentage of weight change and survival rate of the assay animals in a suckling mouse model infected with coronavirus (COV). The mouse infection model is widely used to determine the protective effect of the compound on virus-infected animals to reflect the antiviral activity of the compound.
Suckling mice (C57BL6/J strain) were inoculated with virus (coronavirus OC43) by intranasal drops on day 0, with an inoculation dose of 3500 p.f.u./mouse. From day 0 to day 6, the mice were treated with a vehicle (5% DMSO+40% polyethylene glycol 400+55% water) or 12.5 mpk or 25 mpk of the compound of the present disclosure for 7 consecutive days, once a day, by intraperitoneal injection, for a total of 7 times, with the first administration time being 2 hours before virus inoculation. The animals were continuously observed from day 0 to day 14, and the body weight, health and survival status were recorded.

plasma protein [4] = assay: Plasma protein binding rate (PPB), CD-1 mice; assay type: in vitro ADME; conditions: 2 μM, 4 hours dialysis
Experimental: as §1

plasma protein [5] = assay: Plasma protein binding rate (PPB), humans; assay type: in vitro ADME; conditions: Human plasma, 2 μM, 4 hours dialysis
Experimental: as §1

Cn1cnc(Cc2cn(Cc3cc(F)c(F)cc3F)c(Nc3cc4cn(C)nc4cc3Cl)nc2=O)n1 [Compound 4 hydrochloride]
EC50 [1]: 52 nM
PPB_Unbound (%) (plasma protein [2]): 18.8%
Vd (in vivo; iv, 0.25 mg/kg): 0.62 L/kg
clearance (in vivo; iv, 0.25 mg/kg): 4.1 mL/min/kg
half-life (in vivo; iv, 0.25 mg/kg): 2.2 h
AUC (in vivo; iv, 0.25 mg/kg, AUC): 2.4 µM·h
AUC (in vivo; iv, 0.25 mg/kg, AUCfree): 0.11 µM·h
Cmax (in vivo; po, 0.5 mg/kg): 530 nM
Tmax (in vivo; po, 0.5 mg/kg): 2 h
bioavailability (in vivo; po, 0.5 mg/kg): 103%
half-life (in vivo; po, 0.5 mg/kg): 3.4 h
AUC (in vivo; po, 0.5 mg/kg, AUC): 4.8 µM·h
AUC (in vivo; po, 0.5 mg/kg, AUCfree): 0.22 µM·h
PPB_Unbound (%) (plasma protein [3]): 23.9%
Survival rate (coronavirus OC43; 12.5 mpk, Day 1): 100%
Weight changes (Percent of starting body weight) (coronavirus OC43; 12.5 mpk, Day 1): 5.35 ± 0.58% of starting body weight
Survival rate (coronavirus OC43; 12.5 mpk, Day 2): 100%
Weight changes (Percent of starting body weight) (coronavirus OC43; 12.5 mpk, Day 2): 14.57 ± 1.37% of starting body weight
Survival rate (coronavirus OC43; 12.5 mpk, Day 3): 100%
Weight changes (Percent of starting body weight) (coronavirus OC43; 12.5 mpk, Day 3): 22.55 ± 1.37% of starting body weight
Survival rate (coronavirus OC43; 12.5 mpk, Day 4): 100%
Weight changes (Percent of starting body weight) (coronavirus OC43; 12.5 mpk, Day 4): 30.95 ± 1.19% of starting body weight
Survival rate (coronavirus OC43; 12.5 mpk, Day 5): 100%
Weight changes (Percent of starting body weight) (coronavirus OC43; 12.5 mpk, Day 5): 39.15 ± 1.15% of starting body weight
Survival rate (coronavirus OC43; 12.5 mpk, Day 6): 100%
Weight changes (Percent of starting body weight) (coronavirus OC43; 12.5 mpk, Day 6): 42.61 ± 1.80% of starting body weight
Survival rate (coronavirus OC43; 12.5 mpk, Day 7): 100%
Weight changes (Percent of starting body weight) (coronavirus OC43; 12.5 mpk, Day 7): 49.30 ± 2.16% of starting body weight
Survival rate (coronavirus OC43; 12.5 mpk, Day 8): 100%
Weight changes (Percent of starting body weight) (coronavirus OC43; 12.5 mpk, Day 8): 55.56 ± 2.05% of starting body weight
Survival rate (coronavirus OC43; 12.5 mpk, Day 9): 100%
Weight changes (Percent of starting body weight) (coronavirus OC43; 12.5 mpk, Day 9): 57.80 ± 4.27% of starting body weight
Survival rate (coronavirus OC43; 12.5 mpk, Day 10): 100%
Weight changes (Percent of starting body weight) (coronavirus OC43; 12.5 mpk, Day 10): 60.74 ± 6.34% of starting body weight
Survival rate (coronavirus OC43; 12.5 mpk, Day 11): 100%
Weight changes (Percent of starting body weight) (coronavirus OC43; 12.5 mpk, Day 11): 60.39 ± 8.87% of starting body weight
Survival rate (coronavirus OC43; 12.5 mpk, Day 12): 100%
Weight changes (Percent of starting body weight) (coronavirus OC43; 12.5 mpk, Day 12): 65.10 ± 10.85% of starting body weight
Survival rate (coronavirus OC43; 12.5 mpk, Day 13): 100%
Weight changes (Percent of starting body weight) (coronavirus OC43; 12.5 mpk, Day 13): 76.18 ± 9.69% of starting body weight
Survival rate (coronavirus OC43; 12.5 mpk, Day 14): 100%
Weight changes (Percent of starting body weight) (coronavirus OC43; 12.5 mpk, Day 14): 96.72 ± 10.96% of starting body weight
Survival rate (coronavirus OC43; 25 mpk, Day 1): 100%
Weight changes (Percent of starting body weight) (coronavirus OC43; 25 mpk, Day 1): 6.45 ± 1.94% of starting body weight
Survival rate (coronavirus OC43; 25 mpk, Day 2): 100%
Weight changes (Percent of starting body weight) (coronavirus OC43; 25 mpk, Day 2): 12.35 ± 1.74% of starting body weight
Survival rate (coronavirus OC43; 25 mpk, Day 3): 100%
Weight changes (Percent of starting body weight) (coronavirus OC43; 25 mpk, Day 3): 22.61 ± 2.41% of starting body weight
Survival rate (coronavirus OC43; 25 mpk, Day 4): 100%
Weight changes (Percent of starting body weight) (coronavirus OC43; 25 mpk, Day 4): 28.78 ± 2.69% of starting body weight
Survival rate (coronavirus OC43; 25 mpk, Day 5): 100%
Weight changes (Percent of starting body weight) (coronavirus OC43; 25 mpk, Day 5): 34.72 ± 2.23% of starting body weight
Survival rate (coronavirus OC43; 25 mpk, Day 6): 100%
Weight changes (Percent of starting body weight) (coronavirus OC43; 25 mpk, Day 6): 39.95 ± 2.01% of starting body weight
Survival rate (coronavirus OC43; 25 mpk, Day 7): 100%
Weight changes (Percent of starting body weight) (coronavirus OC43; 25 mpk, Day 7): 45.35 ± 2.00% of starting body weight
Survival rate (coronavirus OC43; 25 mpk, Day 8): 100%
Weight changes (Percent of starting body weight) (coronavirus OC43; 25 mpk, Day 8): 49.97 ± 1.91% of starting body weight
Survival rate (coronavirus OC43; 25 mpk, Day 9): 100%
Weight changes (Percent of starting body weight) (coronavirus OC43; 25 mpk, Day 9): 55.69 ± 2.31% of starting body weight
Survival rate (coronavirus OC43; 25 mpk, Day 10): 100%
Weight changes (Percent of starting body weight) (coronavirus OC43; 25 mpk, Day 10): 62.00 ± 2.26% of starting body weight
Survival rate (coronavirus OC43; 25 mpk, Day 11): 100%
Weight changes (Percent of starting body weight) (coronavirus OC43; 25 mpk, Day 11): 72.13 ± 3.02% of starting body weight
Survival rate (coronavirus OC43; 25 mpk, Day 12): 100%
Weight changes (Percent of starting body weight) (coronavirus OC43; 25 mpk, Day 12): 87.49 ± 3.63% of starting body weight
Survival rate (coronavirus OC43; 25 mpk, Day 13): 100%
Weight changes (Percent of starting body weight) (coronavirus OC43; 25 mpk, Day 13): 95.42 ± 4.90% of starting body weight
Survival rate (coronavirus OC43; 25 mpk, Day 14): 100%
Weight changes (Percent of starting body weight) (coronavirus OC43; 25 mpk, Day 14): 118.37 ± 5.15% of starting body weight
PPB_Unbound (%) (plasma protein [4]): 2.8%
PPB_Unbound (%) (plasma protein [5]): 24.3%
